Where a SMILES comes first, the peptide text is derived from it. Bounds are passed on as bounds.

The subject of data set [1] is Caco-2 cell monolayers. As to the kind of experiment: Caco-2 cell monolayers permeation experiments. It is filed as in vitro ADME, human. For orientation: Caco-2 cells form a polarised layer with tight junctions and transporters.
Procedure: (§2) The colorectal adenocarcinoma (Caco-2) cell line was purchased from ATCC (Rockville, MD, USA). Cells were cultured in DMEM high glucose (4.5 g/L) with 2 mM L-glutamine and 10% (v/v) heat-inactivated fetal bovine serum. Cells were maintained at 37 °C in a humidified 5% CO2 atmosphere. Differentiation experiments were performed in a 12-well multiwell in transwell inserts (PET membrane, 0.4 µm pore size, 0.30 cm^2 surface area), plating Caco-2 at 2.6 × 10^5 cells/cm^2 for 21 days in complete medium, changed every other day.
(§3) The integrity of the monolayers was evaluated by means of the transepithelial electrical resistance (TEER) measurement using an EVOM2 epithelial voltohmmeter (World Precision Instruments, Sarasota, FL, USA). […] For the permeation assays, only intact monolayers with TEER higher than 300 Ω × cm^2 were used. In brief, PET membranes were washed for 15–20 min at 37 °C with pre-warmed Hank’s balanced salt solution (HBSS) buffered with 25 mM HEPES and NaHCO3 (0.35 g/L) to adjust pH at 7.4, or with 10 mM methanesulfonic acid to adjust pH at 6.5. HBSS was added both to the apical (0.3 mL) and to the basolateral (0.9 mL) transwell compartments, as previously described [22].
(§4) For transport experiments, donor solution containing PG1 peptide was added to the apical compartment. […]
(§5) The apparent permeability coefficient (Papp) was calculated according to the Equation (1). The donor concentration was recalculated by subtracting the cumulative amount transported to the receiver chamber for each time interval:(1) CD(ti)=CD(ti−1)−CRti−f×CRti−1×VR/VD CD (ti) and CR (ti) (μM): donor and receiver chamber concentrations calculated at each sample occasion (i) from the donor and receiver concentrations at the previous occasion CD (ti−1) and CR (ti−1), respectively; f = 1 − VS/VR: sample replacement dilution factor; VS (cm^3): sample volume; VR (cm^3): receiver chamber volume; VD (cm^3): donor chamber volume.
A short description of data set [2]: Microsomal stability assay. It is filed as in vitro ADME. Particulars: human microsomes 20 mg/mL stock (5 μL in 200 µL), PG1 1 mM stock (2 μL), 100 mM phosphate buffer pH 7.4, 5 min pre-incubation, NADPH, 37 °C, 60 min, LC-MS/MS; mean ± SEM; read-out: parent compound turnover percentage. How it is done: 2 μL of PG1 peptide (1 mM) were incubated with 183 µL of 100 mM phosphate buffer (pH 7.4), and 5 μL of 20 mg/mL human microsomes (Thermo Fisher Scientific, Bremen, Germany). After pre-incubation in a water bath for 5 min, the mixture was added with 10 μL of the 20 mM NADPH at further incubated at 37 °C for 60 min. The reaction was stopped with ice-cold methanol, centrifuged at 10,000 rpm at room temperature for 5 min and analyzed by LC-MS/MS. Three controls were used: T0 reference was obtained stopping the microsomal reaction by addition of the organic solvent immediately after incubation with microsomes. As positive and negative controls were used testosterone and PG1 solution incubated without NADPH. The extent of metabolism is expressed as a percentage of the parent compound turnover using the following equation:(2) % Parent compound turnover = 100 − [concentration at 60 min/concentration at 0 min × 100]

In data set [3] the test system is pancreatin (from the porcine pancreas), chymotrypsin (from bovine pancreas). In words: Enzymatic stability with digestive enzymes. Type of data set: in vitro ADME. Particulars: chymotrypsin and bile salts, peptide/enzyme 1:10 or 1:100 w/w, 37 °C, 180 min, LC-MS/MS. How it is done: (§1) The peptide (5 µM) was incubated for 3 h and monitored by mass spectrometry experiments. On the other hand, the assessment of PG1 enzymatic stability was performed by treating the peptide with digestive enzymes. In detail, pentapeptide was incubated with pancreatin (from the porcine pancreas), chymotrypsin (from bovine pancreas) and bile salts. Digestive reactions were carried out at 37 °C for 180 min with 1:10 or 1:100 peptide/enzyme ratio, w/w. Finally, the mixture was centrifuged at 4000× g at 4 °C for 10 min, and PG1 peptide was collected at time 0 and at the end of the experiment and then analyzed by LC-MS/MS for the mass balance calculation.

Data set [4] is described as follows: Caco-2 cell monolayers permeation experiments. Type of data set: in vitro ADME, human. Particulars: human; Caco-2 monolayers, HBSS, 180 min, UHPLC-MS/MS; read-out: efflux ratio (Papp,b/a/Papp,a/b).
Procedure: as §2, §3, §4, §5
A short description of data set [5]: Serum concentration of PG1 in treated mice. Conditions: mouse, mice treated with PG1 (10 mg/Kg daily), ACN/0.1% TFA extraction, LC-MS/MS, LOQ 8.6 pM, mean ± SEM, read-out: serum concentration of pentapeptide. Type of data set: in vivo. As to the method:
For the determination of serum concentration of pentapeptide in mice treated with PG1, blood samples were taken from the ventricle, performing a slow withdrawal to prevent the heart collapsing, to obtain a large quantity of high-quality blood. After collection, samples were rapidly centrifuged at 800 g to separate and collect serum. Extraction was conducted with ice-cold ACN plus 0.1% TFA (100 µL serum + 200 µL ACN). Samples were vortexed for 30 s and then centrifuged for 5 min at 10,000 rpm (Eppendorf Centrifuge model 5425). The supernatant was dried under nitrogen steam and reconstituted in 50:50 H2O/ACN. Calibration curve prepared by serial dilution of synthetic peptide solubilized in water in over the range 200–10 pM (y = 0.0167x + 0.7127, R^2 = 0.9998, LOD = 2.8 pM, LOQ = 8.6 pM).

Data set [6] relates to Caco-2 cell monolayers. As to the kind of experiment: Caco-2 monolayer integrity (zonulin-1 immunofluorescence) and cell vitality. Type of data set: cell-based, human. Conditions: PG1 25 μM, 3 h; zonulin-1 expression and cell vitality (crystal violet); Figure S2. How it is done:
To evaluate the effect of PG1 peptide on colorectal adenocarcinoma (Caco-2) cells, the cells were plated in 48-well plates at a density of 36 × 10^3 cells/well. After 24 h, the Hanks’ Balanced Salt solution containing PG1 peptide at the indicated concentrations was added to the wells. The cells were examined after 3 h through microscope analysis. Finally, cells’ viability was assessed by the use of Crystal Violet Staining Solution.
All experiments were performed in triplicate, and the relative cell viability was expressed as a percentage in comparison with the untreated control cells.
Integrity of monolayers was evaluated at the end of transport experiments fixing the PET membranes with 4% paraformaldehyde (PFA) for 15 min after a wash with PBS. Membranes were then incubated with blocking solution (0.1% Triton, 1% BSA, 0.02% sodium azide, 50 mM ammonium chloride) for 20 min at room temperature in the dark, followed by incubation with anti-zonulin 1 antibody (#402200, Invitrogen, Thermo Fisher Scientific, Waltham, MA, USA) at 2 μg mL^−1 (RT, 2 h). […] Slides were examined under a Nikon fluorescence inverted microscope (Nikon Instruments Europe, Firenze, Italy) and analyzed as described.
Figure S2. (A) Fluorescence micrograph of the Caco-2 cell monolayers. […]
Original magnification 200X. […] Results are expressed as mean (± SD), and are representative of three independent experiments. […]

The nature of data set [7]: Chemical stability in simulated enteric lumen. Type of data set: physicochemical. Particulars: 5 µM peptide, 10 mM HCOONH4 pH 7.5, 37 °C, 3 h, mass spectrometry. As to the method:
In order to determine pharmacokinetic properties of a synthetic peptide, we have evaluated its chemical stability during in vitro simulated GI digestion. In detail, we have recreated the enteric lumen by alkalinization at pH = 7.5 with 10 mM HCOONH4 buffer.
as §1

For the compound `CC(C)NCC(O)COc1cccc2ccccc12` (centres unmarked) [propranolol, reference compound], the “apparent permeability coefficient (Papp) of monolayer control” value with Caco-2 cell monolayers [1] (Caco-2 monolayers 21 days, transwell, HBSS, LC-MS/MS (SRM), integrity/reference marker) is 8.05 ± 0.16 × 10^−5 cm/s.
Consider `CSCC[C@H](NC(=O)[C@@H]1CCCN1C(=O)[C@H](CCC(=O)O)NC(=O)[C@H](CCCCN)NC(=O)[C@@H](N)CCC(N)=O)C(=O)O` [PG1, Gln-Lys-Glu-Pro-Met] (H-QKEPM-OH), for which the metabolised at 1 h, 10 µM in data set [2] is around 13.2%. In data set [3], the “enzymatic stability (hydrolysis)” value is reported as “not hydrolysed”. The “dependence of transmembrane uptake on proton gradient” value in the data set with Caco-2 cell monolayers [1] (Caco-2 monolayers, HBSS pH 7.4 or pH 6.5) is listed as “independent of the proton gradient”. The efflux ratio at 180 min in data set [4] was below 1. Further, the level at time molar in data set [5] is around 0.017 nM. For the same compound, in the data set on Caco-2 cell monolayers [6], the “Caco-2 cell monolayers integrity” value is “preserved”. The chemical stability result in data set [7] is reported as “high peptide stability for up to 3 h”.

The values above are taken from paper PMC8002072, “A Novel Vasoactive Peptide “PG1” from Buffalo Ice-Cream Protects from Angiotensin-Evoked High Blood Pressure” (Antioxidants, 2021).
